{"source": "patent US20080269161A1", "about": "“Compositions and Methods Relating to Mitochondrial Hyperpolarization in Neurological Disease” (priority 2005, published 2008)", "key": {"[1]": {"target": "T1, human adenosine receptor A3 (Homo sapiens, UniProt P0DMS8)", "T1 sequence (P0DMS8 1-318)": "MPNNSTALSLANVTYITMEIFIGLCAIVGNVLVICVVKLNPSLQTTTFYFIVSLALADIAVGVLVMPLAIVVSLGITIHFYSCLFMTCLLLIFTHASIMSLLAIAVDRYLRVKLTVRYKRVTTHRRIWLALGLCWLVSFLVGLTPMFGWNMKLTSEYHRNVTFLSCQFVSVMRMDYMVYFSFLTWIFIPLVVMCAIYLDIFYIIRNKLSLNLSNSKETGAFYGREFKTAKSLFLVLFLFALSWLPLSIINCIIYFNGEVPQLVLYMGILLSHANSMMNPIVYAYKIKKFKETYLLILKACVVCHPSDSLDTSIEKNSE", "details": "recombinant human receptor; cited from earlier work"}, "[2]": {"target": "human adenosine receptor A2A (Homo sapiens, UniProt P29274)", "sequence (P29274 whole entry)": "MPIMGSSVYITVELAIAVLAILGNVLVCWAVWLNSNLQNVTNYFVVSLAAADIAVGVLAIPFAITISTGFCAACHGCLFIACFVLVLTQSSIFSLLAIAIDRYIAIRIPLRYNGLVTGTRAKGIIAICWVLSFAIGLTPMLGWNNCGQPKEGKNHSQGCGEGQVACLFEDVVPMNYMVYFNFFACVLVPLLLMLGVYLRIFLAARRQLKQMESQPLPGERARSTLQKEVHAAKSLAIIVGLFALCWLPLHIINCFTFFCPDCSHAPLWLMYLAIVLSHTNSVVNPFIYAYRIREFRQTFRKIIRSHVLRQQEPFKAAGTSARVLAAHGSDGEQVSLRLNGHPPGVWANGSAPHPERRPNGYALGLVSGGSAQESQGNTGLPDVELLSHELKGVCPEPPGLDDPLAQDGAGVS", "details": "recombinant human receptor; cited from earlier work"}, "[3]": {"target": "T2, human adenosine receptor A2B (Homo sapiens, UniProt P29275)", "T2 sequence (P29275 1-332)": "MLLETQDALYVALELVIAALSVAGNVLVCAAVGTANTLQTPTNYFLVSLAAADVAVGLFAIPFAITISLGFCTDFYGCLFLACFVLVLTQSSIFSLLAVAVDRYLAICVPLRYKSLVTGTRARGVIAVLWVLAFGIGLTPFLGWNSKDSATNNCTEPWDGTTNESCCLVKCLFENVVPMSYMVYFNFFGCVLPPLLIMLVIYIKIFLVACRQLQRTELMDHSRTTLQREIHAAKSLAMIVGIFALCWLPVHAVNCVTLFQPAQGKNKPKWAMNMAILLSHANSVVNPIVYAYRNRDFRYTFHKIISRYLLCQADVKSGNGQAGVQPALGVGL", "details": "recombinant human receptor; cited from earlier work"}, "[4]": {"test_system": "Tat-stimulated TNF release in monocytes", "assay": "Tat-stimulated TNF release by primary monocytes (ELISA)", "format": "cell-based, human", "details": "4 h", "protocol": "Human primary monocytes were treated with Tat (100 nM) in the presence or absence of the A2AR agonist, CGS21680 (CGS; 1 μM) or the A2AR antagonist, ZM241385 (100 nM) for 4 h. TNF levels in culture supernatants were then quantitated by ELISA. Data represent mean+SEM of three replicates, from a single representative experiment\nPrimary monocytes were seeded in separate triplicate wells, and exposed independently to LPS (100 ng/ml), vehicle (NT) or Tat (100 nM) in the presence or absence of the A2AR agonist, CGS21680 (1 μM). After 4 h, cells were harvested. (A) TNF was measured in cell supernatants by ELISA Mean data values (±S.D.) are shown for the triplicate wells. (B) The corresponding cells from each well in panel A were lysed and subjected to qRTPCR analysis. Each cDNA sample was analyzed in quadruplicate. Assay results are presented as fold induction of gene expression, compared to untreated cells, after normalization to levels of GAPDH. Data represent mean±SD for each individual experimental replicate/well.\nHuman primary monocytes were treated with Tat (100 nM) in the presence or absence of the A2AR agonist, ATL313 (1-4 nM) or the A2AR antagonist, ATL455 (1-4 nM) for 4 h. TNF levels in culture supernatants were then quantitated by ELISA. […]\nHuman primary monocytes were treated with Tat (100 nM) in the presence or absence of the A2AR agonist, ATL313 (at the indicated doses) for 4 h. TNF levels in culture supernatants were then quantitated by ELISA. […]\n(6) Primary monocytes. […] Results are compared for both populations, as well as purity (as assessed by immunophenotyping using CD14, CD68 and MHC class II).\nThe effect of an A2AR agonist on TNF release by primary human monocytes was also determined. Monocytes were stimulated with HIV-1 Tat, in the presence or absence of the A2AR agonist CGS21680 or the A2AR antagonist ZM251385 and TNF release was then measured in cell culture supernatants using an ELISA assay.\nQuantitative real-time PCR analysis was used to measure TNF message levels in Tat-treated monocytes. […]"}, "[5]": {"target": "T3, human adenosine receptor A1 (Homo sapiens, UniProt P30542)", "T3 sequence (P30542 1-326)": "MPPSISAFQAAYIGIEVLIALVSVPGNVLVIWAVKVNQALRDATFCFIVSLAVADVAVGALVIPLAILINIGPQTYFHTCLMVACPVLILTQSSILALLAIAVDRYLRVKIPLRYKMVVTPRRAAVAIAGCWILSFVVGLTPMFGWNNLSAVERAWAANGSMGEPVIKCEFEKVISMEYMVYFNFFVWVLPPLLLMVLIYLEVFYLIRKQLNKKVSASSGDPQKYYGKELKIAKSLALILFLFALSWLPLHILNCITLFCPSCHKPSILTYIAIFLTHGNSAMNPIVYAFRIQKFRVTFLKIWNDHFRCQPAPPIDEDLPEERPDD", "details": "recombinant human receptor; cited from earlier work"}, "[6]": {"test_system": "rat cerebellar granule neurons (CGNs)", "assay": "Tat-induced apoptosis of cerebellar granule neurons (TUNEL)", "format": "cell-based", "details": "Tat 500 nM, 48 h", "protocol": "(§1) CGNs were exposed to HIV-1 Tat (Tat, 500 nM), or vehicle alone (NT), in the presence or absence of the A2A antagonist, ZM241385. After 48 h, cultures were analyzed for the percentage of apoptotic cells using the TUNEL assay. Data represent mean±SEM for one experiment that was performed in triplicate; data are representative of two independent experiments.\nas §1, with “(No Tat),” for “(NT),”, “A2AR antagonists, ATL455 and ZM241385, or the A2AR agonists ATL313 and CGS21680.” for “A2A antagonist, ZM241385.”\n(1) Primary rat cerebellar granule neurons (CGNs). CGNs represent a highly homogenous population of primary neurons which are susceptible to Tat and PAF-mediated cell killing and have been used in many of previous studies. CGN cells are isolated according to published procedures [Maggirwar, S. B., et al. 1999. J Neurochem 73:578-86] [Tong, N., et al. 2001. Eur J Neurosci 13:1913-22].\n78(4): p. […] 22(6): p. 1102-6].\nPrimary rat cerebellar granule neurons (CGNs) were exposed to a neurotoxic concentration of HIV-1 Tat, in the presence or absence of an A2AR antagonist (ZM241385). […] It is important to note that CGNs express adenosine A2A receptors [Vacas, J., et al. 2003. Brain Res 992:272-280].\nPrimary cultures of rat cerebellar granule neurons (CGNs) were exposed to HIV-Tat ([…]) alone or together with increasing doses of the A2AR antagonist ATL-455 or A2A agonists ATL313 or CGS21680. Cells are treated with the test compounds for defined time intervals of up to 48 hours (1, 4, 8, 24, and 48 hours)."}}, "note": "Entries after “also recorded” stand apart in the source; their conditions may differ.", "data": [{"compound": "COC(=O)N1CCC(CC#Cc2nc(N)c3ncn(C4OC(C(=O)NC5CC5)C(O)C4O)c3n2)CC1", "note": "(stereo not shown) [ATL313, 4-{3-[6-amino-9-(5-cyclopropylcarbamoyl-3,4-dihydroxytetrahydrofuran-2-yl)-9H-purin-2-yl]prop-2-ynyl}piperidine-1-carboxylic acid methyl ester]", "values": [{"measurement": "Ki", "setting": "[1]", "value": 320, "unit": "nM"}, {"measurement": "Ki", "setting": "[2]", "value": 0.6, "unit": "nM"}, {"measurement": "Ki", "setting": "[3]", "value": "> 1000", "unit": "nM"}, {"measurement": "IC50", "setting": "[4]; Homo sapiens, Monocyte, read-out: approximate IC50 for inhibitory effect on Tat-stimulated TNF release in monocytes", "value": "< 1", "unit": "nM"}, {"measurement": "effect on Tat-induced monocyte activation (TNF release)", "setting": "[4]; Tat 100 nM, CGS21680 1 μM, ATL313, ATL455 1-4 nM", "value": "very similar results; also recorded: opposed"}, {"measurement": "Ki", "setting": "[5]", "value": 52, "unit": "nM"}, {"measurement": "effect on Tat-induced neuronal apoptosis", "setting": "[6]", "value": "did not result in an increase in cell death"}]}]}
